{"source": "patent EP3485891A1", "about": "“WOUND TREATMENT COMPOSITION CONTAINING ULDAVIOSIDE A COMPOUND” (Elcubio Co., Ltd., priority 2016, dated 2018)", "key": {"VEGF": {"test_system": "VEGF", "assay": "Immunohistochemistry of hack wound tissue sections", "type": "in vivo, Sprague-Dawley white rats", "conditions": "IHC, tissue sections on day 10, compared with the control, FIG. 7A", "description": "(§1) In order to investigate a hack healing effect of the uldavioside A compound of the present invention, the expression changes of proteins associated with angiogenesis and tissue regeneration were observed.\n(§2) The tissue sections on day 10, which were fabricated in Experimental Example 4-2 above, were deparaffinized, hydrated, and washed, and were then subjected to immunohistochemistry (IHC) using antibodies of vascular endothelial growth factor (VEGF) and CD31, which are proteins associated with angiogenesis in tissue, and basic fibroblast growth factor (bFGF) and β-catenin, which are proteins associated with tissue regeneration."}, "bFGF": {"test_system": "bFGF", "assay": "Immunohistochemistry of hack wound tissue sections", "type": "in vivo, Sprague-Dawley white rats", "conditions": "IHC, tissue sections on day 10, compared with the control, FIG. 7B", "description": "as §1, §2"}, "β-catenin": {"test_system": "β-catenin", "assay": "Immunohistochemistry of hack wound tissue sections", "type": "in vivo, Sprague-Dawley white rats", "conditions": "IHC, tissue sections on day 10, compared with the control, FIG. 7B", "description": "as §1, §2"}, "CD31": {"test_system": "CD31", "assay": "Immunohistochemistry of hack wound tissue sections", "type": "in vivo, Sprague-Dawley white rats", "conditions": "IHC, tissue sections on day 10, compared with the control, FIG. 7A", "description": "as §1, §2"}, "[1]": {"test_system": "Sprague-Dawley white rats", "assay": "Full-thickness hack wound healing, visual observation and wound size quantification", "type": "in vivo", "conditions": "rat hind leg, 3 cm-diameter full-thickness hack, ointment containing 0.025 wt%, topical; days 3, 7, 10, 14; compared with the control (ointment without compound), FIG. 5", "procedure": "In order to investigate a wound healing effect of the uldavioside A compound of the present invention, an animal experiment was conducted.\nA hind leg of 7-8 week-old Sprague-Dawley white rats was shaved, and disinfected with 70% alcohol, and then a 3 cm-diameter circular full-thickness hack was made. After the full-thickness hack was made, the rats were randomly assigned and divided into a control treated without the uldavioside A compound of the present invention and a treatment group. For the treatment group, on the day of hack induction, the wound was treated with an ointment (Preparation Example 1-2 below) containing 0.025 wt% of the uldavioside A compound, wrapped with sterilized Korean traditional paper, and fixed with a band and a bandage to maintain a wet environment. For the control, the wound was treated with an ointment not containing the uldavioside A compound. Thereafter, on days 3, 7, 10, and 14 of wound induction, the wound site was observed, and the size of the wound site was quantified."}, "NIH3T3 cells [2]": {"test_system": "NIH3T3 cells", "assay": "MTT assay, cytotoxicity", "type": "cell-based", "conditions": "1 µM and 10 µM, 24 hours", "procedure": "(§3) In order to investigate the activity of the uldavioside A compound of the present invention, animal cells were incubated. Here, C212 cells, as myoblasts, and NIH3T3 cells and human diploid fibroblasts (HDFs), as fibroblasts, were used as the animal cells. Each type of cells were incubated in a 5% CO2 incubator containing Dulbecco's modified eagle's medium (DMEM) supplemented with 10% fetal bovine serum (FBS), 100 U/mℓ penicillin, and 100 µg/mℓ streptomycin at 37 °C.\n(§4) The cytotoxicity of the uldavioside A compound of the present invention was investigated using a 3-(4,5-dimethylthiazol-2-yl)-2,5-diphenyltetrazolium bromide (MTT) assay.\n(§5) The C2C12 and NIH3T3 cells incubated in Experimental Example 1 above were dispensed at 1×10^5 cells per well in a 48-well plate and then incubated for 24 hours. Thereafter, DMEM medium containing 0.5% FBS, 100 U/mℓ penicillin, and 100 µg/mℓ streptomycin was placed therein, and then the cells were incubated for 18 hours. After the 18-hour incubation, the cells were treated with an uldavioside A compound at 1 µM and 10 µM and then incubated for 24 hours. Here, non-treated C2C12 and NIH3T3 cells were used as controls. After 24 hours, the cells were treated with an MTT solution at 100 µg/mℓ and incubated at 37 °C for 3 hours. Thereafter, the culture liquid was removed and the formed formazan precipitate was dissolved in 200 µℓ of dimethyl sulfoxide (DMSO), and then the absorbance was measured at 570 nm."}, "C2C12 cells [3]": {"test_system": "C2C12 cells", "assay": "MTT assay, cytotoxicity", "type": "cell-based", "conditions": "1 µM and 10 µM, 24 hours", "procedure": "as §3, §4, §5"}, "[4]": {"test_system": "hack-induced animal tissue", "assay": "Histological change of hack wound tissue (H&E stain, Masson's trichrome stain)", "type": "in vivo, Sprague-Dawley white rats", "procedure": "In order to investigate a hack healing effect of the uldavioside A compound of the present invention, a histological change was observed using the hack-induced animal tissue.\nThe collected tissue was fixed by treatment with 10% formalin for 24 hours. The fixed tissue was embedded with paraffin, and cut into a 5 µm thickness to obtain tissue sections. The tissue sections were deparaffinized, hydrated, and washed, and then subjected to hematoxylin & eosin stain or Masson's trichrome stain.\nMasson's trichrome stain is used to investigate collagen in the tissue, and collagenosis means that the wound in the dermis healed and the functions of the tissue were restored."}, "HDF cells": {"test_system": "HDF cells", "assay": "Cytoprotective activity against glucose oxidative stress in high-glucose environment (MTT)", "type": "cell-based, human", "conditions": "50 mM D-glucose, 10 µM and 20 µM, 7 mU/mℓ glucose oxidase, 24 hours, FIG. 8A", "procedure": "as §3\n(§6) The cytoprotective activity of the uldavioside A compound of the present invention against glucose oxidative stress was investigated.\n(§7) The C2C12 cells and HDF cells incubated in Experimental Example 1 were dispensed at 1×10^5 per well in a 48-well plate, respectively, and then incubated for 24 hours. Thereafter, each well was treated with 50 mM D-glucose to create a high-glucose environment. Then, the cells were treated with the uldavioside A compound at 10 µM and 20 µM, and after 1 hour, were treated with 7 mU/mℓ glucose oxidase, followed by incubation for 24 hours. Here, non-treated C2C12 or HDF cells were used as control 1, high-glucose state cells were used as control 2, and high-glucose state cells treated with glucose oxidase were used as control 3. […] Thereafter, the culture liquid was removed and the formed formazan precipitate was dissolved in 200 µℓ of DMSO, and then the absorbance was measured at 570 nm."}, "[5]": {"test_system": "diabetes-induced animal models", "assay": "Diabetic ulcer healing, circular cut in streptozotocin-induced diabetic rats", "type": "in vivo, Sprague-Dawley white rats", "conditions": "dorsal circular cut 1 or 1.5 cm, ointment containing 0.025 wt%, topical, 8 days at intervals of 2 days, compared with the control, FIG. 9", "procedure": "In order to investigate a diabetic ulcer healing effect of the uldavioside A compound of the present invention, an animal experiment was conducted.\n7-week-old Sprague-Dawley white rats with a body weight of about 300 g were intraperitoneally injected with 60 mg/kg streptozotocin to induce diabetes. After three days, only white rates with a blood glucose level of 300 mg/dℓ or higher were selected by collecting venous blood from the tail vein and measuring the glucose level using a blood glucose meter. The dorsal part of each of the selected white rats was shaved, and a circular cut with a diameter of 1 or 1.5 cm was made on the dorsal part 4-5 cm away from the ear using a puncher. After the circular cut was made, the white rats were randomly assigned and divided into a control treated without the uldavioside A compound of the present invention and a treatment group. For the treatment group, on the day of circular cut induction, the cut was treated with an ointment containing 0.025 wt% of the uldavioside A compound (Preparation Example 1-2 below), wrapped with sterilized Korean traditional paper, and fixed with a band and a bandage to maintain a wet environment. For the control, the cut was treated with an ointment not containing the uldavioside A compound."}, "C2C12 cells [6]": {"test_system": "C2C12 cells", "assay": "Cytoprotective activity against glucose oxidative stress in high-glucose environment (MTT)", "type": "cell-based", "conditions": "50 mM D-glucose, 10 µM and 20 µM, 7 mU/mℓ glucose oxidase, 24 hours, FIG. 8B", "procedure": "as §3, §6, §7"}, "NIH3T3 cells [7]": {"test_system": "NIH3T3 cells", "assay": "Wound healing (scratch) assay under glucose oxidative stress (glucose oxidase)", "type": "cell-based", "conditions": "10 µM, 7 mU/mℓ glucose oxidase, compared with the controls, FIG. 4, migration activity higher than in C2C12", "procedure": "as §3\n(§8) The C2C12 and NIH3T3 cells incubated in Experimental Example 1 above were dispensed at 1×10^6 cells per well in a 12-well plate, and then stabilized through incubation for 24 hours. Thereafter, DMEM medium containing 0.5% FBS, 100 U/mℓ penicillin, and 100 µg/mℓ streptomycin was placed therein, and then the cells were incubated for 18 hours. After the 18-hour incubation, a scratch with about 0.9 mm was made in the center of each well with growing cells, and the cells were treated with a 10 µM uldavioside A compound, followed by pre-incubation for 1 hour. […] Here, at 0, 12, and 24 hours, the cells were fixed with a fixative (2% formaldehyde and 0.2% glutaraldehyde) and stained with 0.3% crystal violet, and then, the migration of the cells was checked using a microscope, and the reduction in area due to the migration of the cells into a wounded site. […]"}, "C2C12 cells [8]": {"test_system": "C2C12 cells", "assay": "Wound healing (scratch) assay under glucose oxidative stress (glucose oxidase)", "type": "cell-based", "conditions": "10 µM, 7 mU/mℓ glucose oxidase, compared with the controls, FIG. 4A, 4B", "procedure": "as §3, §8"}, "NIH3T3 cells [9]": {"test_system": "NIH3T3 cells", "assay": "Wound healing (scratch) assay under inflammatory stress (LPS)", "type": "cell-based", "conditions": "10 µM, 1 hour pre-incubation, then 10 µg/mℓ LPS, 0, 12, 24 hours, compared with the controls (LPS only), FIG. 3C, 3D, migration activity higher than in C2C12", "procedure": "as §3\n(§9) In order to investigate a wound healing effect according to the treatment with the uldavioside A compound of the present invention, a wound healing assay was conducted.\n(§10) The C2C12 and NIH3T3 cells incubated in Experimental Example 1 above were dispensed at 1×10^6 cells per well in a 12-well plate, and then stabilized through incubation for 24 hours. Thereafter, DMEM medium containing 0.5% FBS, 100 U/mℓ penicillin, and 100 µg/mℓ streptomycin was placed therein, and then the cells were incubated for 18 hours. After the 18-hour incubation, a scratch with about 0.9 mm was made in the center of each well with growing cells, and the cells were treated with a 10 µM uldavioside A compound, followed by pre-incubation for 1 hour. After 1 hour, the cells were treated with 10 µg/mℓ lipopolysaccharide (LPS) for inflammatory stress stimulation, and then migration of the cells was observed while the cells were incubated. […]"}, "C2C12 cells [10]": {"test_system": "C2C12 cells", "assay": "Wound healing (scratch) assay under inflammatory stress (LPS)", "type": "cell-based", "conditions": "10 µM, 1 hour pre-incubation, then 10 µg/mℓ LPS, 0, 12, 24 hours, compared with the controls (LPS only), FIG. 3A, 3B", "procedure": "as §3, §9, §10"}}, "data": [{"compound": "OCC1(O)COC(Oc2cc(O)cc3c2CC(O)C(c2ccc(O)c(O)c2)O3)C1O", "note": "(stereo not drawn) [uldavioside A compound, uldavioside A]", "values": [{"measurement": "expression level of VEGF", "setting": "VEGF", "value": "significantly increased"}, {"measurement": "expression level of bFGF", "setting": "bFGF", "value": "significantly increased"}, {"measurement": "expression level of β-catenin", "setting": "β-catenin", "value": "significantly increased"}, {"measurement": "expression level of CD31", "setting": "CD31", "value": "significantly increased"}, {"measurement": "wound site (size of the wound site)", "setting": "[1]", "value": "started healing from day 7, and almost healed on day 14"}, {"measurement": "cytotoxicity", "setting": "NIH3T3 cells [2]; MTT", "value": "no cytotoxicity"}, {"measurement": "cell viability", "setting": "NIH3T3 cells [2]; compared with the controls (non-treated cells), FIG. 2B", "value": "increased"}, {"measurement": "cytotoxicity", "setting": "C2C12 cells [3]; MTT", "value": "no cytotoxicity"}, {"measurement": "cell viability", "setting": "C2C12 cells [3]; compared with the controls (non-treated cells), FIG. 2A", "value": "increased"}, {"measurement": "inflow of immune cells", "setting": "[4]; H&E stain, day 3 after hack induction, ointment 0.025 wt%, FIG. 6(A)", "value": "reduced"}, {"measurement": "angiogenesis and granulation tissues formation", "setting": "[4]; H&E stain, day 7 after hack induction, ointment 0.025 wt%, FIG. 6(A)", "value": "actively progressing"}, {"measurement": "proliferation of fibroblasts", "setting": "[4]; H&E stain, day 10 after hack induction, ointment 0.025 wt%, FIG. 6(A)", "value": "active proliferation of fibroblasts were observed"}, {"measurement": "amount of collagen stained", "setting": "[4]; Masson's trichrome stain, day 7 after hack induction, compared with the control, FIG. 6(B)", "value": "remarkably increased"}, {"measurement": "collagenosis", "setting": "[4]; Masson's trichrome stain, day 17, FIG. 6(B)", "value": "collagenosis in most tissues"}, {"measurement": "reduction in cell viability by glucose oxidative stress", "setting": "HDF cells", "value": "inhibited in a dose-dependent manner"}, {"measurement": "wound site (wound size)", "setting": "[5]", "value": "started healing from day 4 and the wound size remarkably decreased"}, {"measurement": "reduction in cell viability by glucose oxidative stress", "setting": "C2C12 cells [6]", "value": "inhibited in a dose-dependent manner"}, {"measurement": "cell migration", "setting": "NIH3T3 cells [7]", "value": "increased"}, {"measurement": "cell migration", "setting": "C2C12 cells [8]", "value": "increased"}, {"measurement": "cell migration", "setting": "NIH3T3 cells [9]", "value": "increased"}, {"measurement": "cell migration", "setting": "C2C12 cells [10]", "value": "increased"}]}]}
